# Patent publication US12286429B2, “5-oxo-1,2,3,5,8,8a-hexahydroindolizine-3-carboxamide derivatives useful as a factor XIa inhibitors” (Janssen Pharmaceutica NV, priority 2021, dated 2025)
# Key:
# human plasma kallikrein = human plasma kallikrein (Homo sapiens, UniProt P03952); assay: Kallikrein inhibition assay utilizing a quenched AMC peptide substrate (FLINT); assay type: biochemical; conditions: 11-point, 3-fold serial dilution, top 1 μM; 30 min preincubation; 2 nM kallikrein; 50 μM Z-Gly-Pro-Arg-AMC; kinetic reads over 30 min
# Chain of human plasma kallikrein (P03952 391-638 limits assumed): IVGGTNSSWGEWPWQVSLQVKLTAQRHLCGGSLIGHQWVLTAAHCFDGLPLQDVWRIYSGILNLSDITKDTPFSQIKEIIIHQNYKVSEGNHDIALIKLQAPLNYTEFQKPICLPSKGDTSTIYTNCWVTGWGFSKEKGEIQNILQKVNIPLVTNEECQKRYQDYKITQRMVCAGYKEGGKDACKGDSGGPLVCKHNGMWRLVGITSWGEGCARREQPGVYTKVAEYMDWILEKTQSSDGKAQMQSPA
# Chain of human plasma kallikrein (P03952 20-390 partner limits assumed): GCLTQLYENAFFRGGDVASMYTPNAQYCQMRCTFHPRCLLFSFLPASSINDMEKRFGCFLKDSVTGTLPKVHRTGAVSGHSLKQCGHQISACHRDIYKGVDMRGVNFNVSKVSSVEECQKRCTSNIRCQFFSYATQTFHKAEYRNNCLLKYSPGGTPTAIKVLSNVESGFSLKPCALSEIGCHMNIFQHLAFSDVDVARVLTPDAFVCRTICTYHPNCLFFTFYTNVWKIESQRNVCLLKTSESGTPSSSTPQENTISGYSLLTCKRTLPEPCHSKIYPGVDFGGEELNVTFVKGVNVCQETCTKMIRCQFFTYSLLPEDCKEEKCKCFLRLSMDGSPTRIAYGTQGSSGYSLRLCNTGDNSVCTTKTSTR
# Procedure, shortened: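 Human plasma kallikrein (2 nM final) was pre-incubated 30 min at room temperature with compound (11-point 3-fold series, top 1 μM, 2% DMSO) in Tris pH 7.5, NaCl, CaCl2, BSA, CHAPS buffer. Reaction started with 50 μM Z-Gly-Pro-Arg-AMC (KM 40 μM), and fluorescence (340/440 nm) was read kinetically over 30 min. IC50 came from a 4-parameter logistic fit.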
# Factor XIa = Factor XIa (Homo sapiens, UniProt P03951); assay: Factor XIa inhibition assay utilizing a fluorophore-quencher pair peptide substrate (FLINT); assay type: biochemical; conditions: 11-point, 3-fold serial dilution, top 100 nM; 30 min preincubation; 15 μM 5Fam-KLTRAETV-K5Tamra substrate; kinetic reads over 30 min; read-out: FXIa Inhibition IC50
# Chain of Factor XIa (P03951 388-625 limits assumed): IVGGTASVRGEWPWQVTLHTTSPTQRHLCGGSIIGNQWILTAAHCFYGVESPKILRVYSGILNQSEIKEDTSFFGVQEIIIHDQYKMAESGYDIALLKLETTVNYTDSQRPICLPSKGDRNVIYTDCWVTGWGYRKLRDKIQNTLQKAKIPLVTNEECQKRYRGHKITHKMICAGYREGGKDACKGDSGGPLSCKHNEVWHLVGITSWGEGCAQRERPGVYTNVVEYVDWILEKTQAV
# Chain of Factor XIa (P03951 19-387 partner limits assumed): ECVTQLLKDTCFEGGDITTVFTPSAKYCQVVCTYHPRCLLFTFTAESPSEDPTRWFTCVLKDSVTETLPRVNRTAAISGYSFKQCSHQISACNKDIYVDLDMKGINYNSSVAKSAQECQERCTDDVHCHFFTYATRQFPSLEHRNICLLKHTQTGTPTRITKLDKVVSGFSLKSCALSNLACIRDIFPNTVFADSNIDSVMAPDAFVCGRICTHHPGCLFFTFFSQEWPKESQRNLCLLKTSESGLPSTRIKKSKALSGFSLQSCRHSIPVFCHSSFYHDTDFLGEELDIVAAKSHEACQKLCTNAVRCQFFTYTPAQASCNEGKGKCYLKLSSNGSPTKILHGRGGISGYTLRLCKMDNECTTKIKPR
# Procedure, shortened: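 FXIa ([…]) preincubated 30 min with compound (11-point, 3-fold, top 100 nM, 2% DMSO) in Tris pH 7.5, NaCl, CaCl2, BSA, CHAPS; 15 μM 5Fam-KLTRAETV-K5Tamra substrate then added. Fluorescence (485/520 nm) read kinetically over 30 min at room temperature; IC50 by 4-parameter fit.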
IC50 (human plasma kallikrein) [nM],IC50 (Factor XIa) [nM],Structure (SMILES)
55.7,36.8,"O=C(Nc1ccc2c(c1)C(F)(F)C(=O)N2)[C@@H]1CC[C@@H]2CC(c3c(-n4cnnn4)ccc(Cl)c3F)=CC(=O)N21 [ID No. 15, (3S,8aR)-7-(3-Chloro-2-fluoro-6-(1H-tetrazol-1-yl)phenyl)-N-(3,3-difluoro-2-oxoindolin-5-yl)-5-oxo-1,2,3,5,8,8a-hexahydroindolizine-3-carboxamide]"
45.3,25,"Cn1nc2ccc(NC(=O)[C@@H]3CC[C@@H]4CC(c5c(-n6cnnn6)ccc(Cl)c5F)=CC(=O)N43)cc2n1 [ID No. 16, (3S,8aR)-7-(3-Chloro-2-fluoro-6-(1H-tetrazol-1-yl)phenyl)-N-(2-methyl-2H-benzo[d][1,2,3]triazol-5-yl)-5-oxo-1,2,3,5,8,8a-hexahydroindolizine-3-carboxamide]"
60.1,3.4,"O=C(Nc1ccc(-c2noc(=O)[nH]2)cc1)[C@@H]1CC[C@@H]2CC(c3c(-n4cnnn4)ccc(Cl)c3F)=CC(=O)N21 [ID No. 17, (3S,8aR)-7-(3-Chloro-2-fluoro-6-(1H-tetrazol-1-yl)phenyl)-5-oxo-N-(4-(5-oxo-4,5-dihydro-1,2,4-oxadiazol-3-yl)phenyl)-1,2,3,5,8,8a-hexahydroindolizine-3-carboxamide]"
9.2,6.1,"O=C(Nc1ccc2nc[nH]c(=O)c2c1)[C@@H]1CC[C@@H]2CC(c3c(-n4cnnn4)ccc(Cl)c3F)=CC(=O)N21 [ID No. 18, (3S,8aR)-7-(3-Chloro-2-fluoro-6-(1H-tetrazol-1-yl)phenyl)-5-oxo-N-(4-oxo-3,4-dihydroquinazolin-6-yl)-1,2,3,5,8,8a-hexahydroindolizine-3-carboxamide]"
169,39.4,"Cn1cc2cc(NC(=O)[C@@H]3CC[C@@H]4CC(c5c(-n6cnnn6)ccc(Cl)c5F)=CC(=O)N43)ccc2n1 [ID No. 19, (3S,8aR)-7-(3-Chloro-2-fluoro-6-(1H-tetrazol-1-yl)phenyl)-N-(2-methyl-2H-indazol-5-yl)-5-oxo-1,2,3,5,8,8a-hexahydroindolizine-3-carboxamide]"
112,25.9,"Cc1nc(-c2ccc(NC(=O)[C@@H]3CC[C@@H]4CC(c5c(-n6cnnn6)ccc(Cl)c5F)=CC(=O)N43)cc2)co1 [ID No. 20, (3S,8aR)-7-(3-Chloro-2-fluoro-6-(1H-tetrazol-1-yl)phenyl)-N-(4-(2-methyloxazol-4-yl)phenyl)-5-oxo-1,2,3,5,8,8a-hexahydroindolizine-3-carboxamide]"
37.4,9.1,"O=C(Nc1ccc2[nH]nnc2c1)[C@@H]1CC[C@@H]2CC(c3c(-n4cnnn4)ccc(Cl)c3F)=CC(=O)N21 [ID No. 21, (3S,8aR)—N-(1H-Benzo[d][1,2,3]triazol-5-yl)-7-(3-chloro-2-fluoro-6-(1H-tetrazol-1-yl)phenyl)-5-oxo-1,2,3,5,8,8a-hexahydroindolizine-3-carboxamide]"
76.1,38.2,"NC(=O)c1ccc(NC(=O)[C@@H]2CC[C@@H]3CC(c4c(-n5cc(C(F)(F)F)nn5)ccc(Cl)c4F)=CC(=O)N32)cc1F [ID No. 24, (3S,8aR)—N-(4-Carbamoyl-3-fluorophenyl)-7-(3-chloro-2-fluoro-6-(4-(trifluoromethyl)-1H-1,2,3-triazol-1-yl)phenyl)-5-oxo-1,2,3,5,8,8a-hexahydroindolizine-3-carboxamide]"
116,28.1,"NC(=O)c1ccc(NC(=O)[C@@H]2CC[C@@H]3CC(c4cc(Cl)ccc4-n4cc(C(F)(F)F)nn4)=CC(=O)N32)cc1F [ID No. 25, (3S,8aR)—N-(4-Carbamoyl-3-fluorophenyl)-7-(5-chloro-2-(4-(trifluoromethyl)-1H-1,2,3-triazol-1-yl)phenyl)-5-oxo-1,2,3,5,8,8a-hexahydroindolizine-3-carboxamide]"
64.9,20.8,CN(C)c1ccnc2ccc(NC(=O)C3CCC4CC(c5c(-n6cnnn6)ccc(Cl)c5F)=CC(=O)N43)cc12 (centres unmarked) [compound 87]
160,> 50,CN(C)c1ccnc2ccc(NC(=O)C3CCC4CC(c5c(-n6cc(Cl)nn6)ccc(Cl)c5F)=CC(=O)N43)cc12 (centres unmarked) [compound 88]
637,> 50,CN(C)c1ccnc2ccc(NC(=O)C3CCC4CC(c5c(-n6cc(C(F)(F)F)nn6)ccc(Cl)c5F)=CC(=O)N43)cc12 (centres unmarked) [compound 89]
128,42.2,[2H]c1nnnn1-c1ccc(Cl)c(F)c1C1=CC(=O)N2C(CCC2C(=O)Nc2ccc3c(c2)C2(CC2)C(=O)N3)C1 (centres unmarked) [compound 96]
570,> 50,CC1C(=O)Nc2c(NC(=O)[C@@H]3CC[C@@H]4CC(c5c(-n6cc(C(F)(F)F)nn6)ccc(Cl)c5F)=CC(=O)N43)cccc21 (some centres unmarked) [compound 102]
120,> 50,Cn1nc2ccc(NC(=O)C3CCC4CC(c5c(-n6cc(Cl)nn6)ccc(Cl)c5F)=CC(=O)N43)cc2n1 (centres unmarked) [compound 105]
497,> 50,Cn1nc2ccc(NC(=O)C3CCC4CC(c5c(-n6cc(C(F)(F)F)nn6)ccc(Cl)c5F)=CC(=O)N43)cc2n1 (centres unmarked) [compound 106]
